The target in one assay is Cyclin-dependent kinase/G2/mitotic-specific cyclin- 1 (Homo sapiens, UniProt P06493). Nature of the assay: Kinase Inhibition Assay.
Sequence of Cyclin-dependent kinase/G2/mitotic-specific cyclin- 1 (P06493 whole entry): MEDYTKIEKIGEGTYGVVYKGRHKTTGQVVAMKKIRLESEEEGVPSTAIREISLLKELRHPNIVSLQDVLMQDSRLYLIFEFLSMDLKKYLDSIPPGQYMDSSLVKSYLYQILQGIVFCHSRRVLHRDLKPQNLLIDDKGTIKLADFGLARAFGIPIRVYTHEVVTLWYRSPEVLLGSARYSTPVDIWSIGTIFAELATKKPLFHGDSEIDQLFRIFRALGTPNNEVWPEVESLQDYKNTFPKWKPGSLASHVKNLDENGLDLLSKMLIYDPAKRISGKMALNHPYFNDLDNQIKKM
Sequence of Cyclin-dependent kinase/G2/mitotic-specific cyclin- 1 (P14635 whole entry, further chain): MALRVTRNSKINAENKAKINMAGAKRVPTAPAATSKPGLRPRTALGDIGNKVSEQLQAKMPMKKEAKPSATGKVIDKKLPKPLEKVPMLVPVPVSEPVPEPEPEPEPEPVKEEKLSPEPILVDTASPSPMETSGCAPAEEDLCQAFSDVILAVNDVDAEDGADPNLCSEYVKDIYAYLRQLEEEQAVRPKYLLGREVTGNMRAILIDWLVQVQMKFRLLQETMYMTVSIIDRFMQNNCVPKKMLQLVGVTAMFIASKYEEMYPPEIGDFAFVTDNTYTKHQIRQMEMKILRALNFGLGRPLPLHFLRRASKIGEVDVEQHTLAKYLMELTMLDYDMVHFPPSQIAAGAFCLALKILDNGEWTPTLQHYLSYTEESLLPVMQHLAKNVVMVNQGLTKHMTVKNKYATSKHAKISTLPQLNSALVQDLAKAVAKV
Details: not given
Here is the method: The enzyme was assayed with a biotinylated peptide substrate and test compounds in the presence of 10 uM ATP/[gamma-33P]ATP in a streptavidin coated FlashPlate (Perkin-Elmer, Boston, MA). Inhibition of the enzymatic activity due to the compound was measured by observing a reduced amount of 33P-gamma-ATP incorporated into the immobilized peptide relative to untreated controls. Linear regression analysis of the percent of inhibition by the test compound was used to calculate IC50 values.
For `CCN(CC)S(=O)(=O)c1ccc(Nc2ccc(C(=O)c3ccccc3)c(N)n2)cc1` [4-[(6-amino-5-benzoylpyridin-2-yl)amino]-N,N-diethylbenzene-1-sulfonamide], the IC50 was > 100 µM.

As for `Nc1nc(Nc2ccc(S(=O)(=O)N(Cc3ccccc3)Cc3ccccc3)cc2)ccc1C(=O)c1c(F)cccc1F` [4-({6-amino-5-[(2,6-difluorophenyl)carbonyl]pyridin-2-yl}amino)-N,N-dibenzylbenzene-1-sulfonamide], the IC50 is > 10 µM. As for `Nc1ccc(C(=O)c2cccs2)c(N)n1` [3-(thiophen-2-ylcarbonyl)pyridine-2,6-diamine], the IC50 is > 100 µM. As for `Nc1ccc(C(=O)c2ccco2)c(N)n1` [3-(furan-2-ylcarbonyl)pyridine-2,6-diamine], the IC50 was > 100 µM. On the same count and under the same terms, for `CCN(CC)S(=O)(=O)c1ccc(Nc2ccc(C(=O)c3ccco3)c(N)n2)cc1` [4-{[6-amino-5-(furan-2-ylcarbonyl)pyridin-2-yl]amino}-N,N-diethylbenzene-1-sulfonamide] the value was > 100 µM.

Still in this assay, the particulars now being: pH 8; 30 °C.
As to `CC(=O)Nc1ccccc1Nc1ccc(C(=O)c2c(F)cccc2F)c(N)n1` [N-[2-({6-amino-5-[(2,6-difluorophenyl)carbonyl]pyridin-2-yl}amino)phenyl]acetamide], the IC50 was > 100 µM. For the molecule `Nc1nc(Nc2ccccc2NS(=O)(=O)c2ccccc2)ccc1C(=O)c1c(F)cccc1F` [N-[2-({6-amino-5-[(2,6-difluorophenyl)carbonyl]pyridin-2-yl}amino)phenyl]benzenesulfonamide], the IC50 is > 100 µM. `Nc1nc(Nc2ccccc2[N+](=O)[O-])ccc1C(=O)c1c(F)cccc1F` [5-[(2,6-difluorophenyl)carbonyl]-2-N-(2-nitrophenyl)pyridine-2,6-diamine]: the IC50 was > 10 µM. For `Nc1nc(Nc2ccccc2NC(=O)c2ccccc2)ccc1C(=O)c1c(F)cccc1F` [N-[2-({6-amino-5-[(2,6-difluorophenyl)carbonyl]pyridin-2-yl}amino)phenyl]benzamide], the IC50 is > 100 µM.

In general, IC50 refers to the concentration that inhibits the measured activity by half. The low end stands for inhibition by little substance, the high end for a need for much substance.

For the origin of these results see BindingDB's records for doi:10.1016/j.bmcl.2005.03.024 (Johnson & Johnson Pharmaceutical, 2005).
